# From publication doi:10.1101/2021.10.07.463234v2 (biorxiv, 2021)
# Where a name gives a salt, the structure may show the parent alone.
# Biological target: SARS-CoV-2 Mac1 (Severe acute respiratory syndrome coronavirus 2, UniProt P0DTD1)
# Assay: biochemical
# Settings: 100 µM; inhibitor
row,SMILES,%inhibition [%]
1,COc1ccccc1OCCNCC(O)COc1cccc2[nH]c3ccccc3c12 (stereo not drawn) [Carvedilol Phosphate],0
2,COc1ccccc1OCCNCC(O)COc1cccc2[nH]c3ccccc3c12 (stereo not drawn) [Carvedilol],23.79

# Same assay, conditions: read-out: %inhibition
row,SMILES,inhibition at 100 µM [%]
1,O=c1[nH]c(=O)c2ccccc2o1 [Carsalam],0
2,CC(C)(C)NCC(O)COc1cccc2c1CCC(=O)N2 (stereo not drawn) [Carteolol HCl],3.36
3,NS(=O)(=O)c1ccc(C(=O)O)cc1 [Carzenide],0
4,CC[C@H](C)C[C@H](C)CCCCCCCCC(=O)N[C@H]1C[C@@H](O)[C@@H](NCCN)NC(=O)[C@@H]2[C@@H](O)CCN2C(=O)[C@H]([C@H](O)CCN)NC(=O)[C@H]([C@H](O)[C@@H](O)c2ccc(O)cc2)NC(=O)[C@@H]2C[C@@H](O)CN2C(=O)[C@H]([C@@H](C)O)NC1=O [Caspofungin Acetate],0
5,COc1cc2c(Oc3ccc4[nH]c(C)cc4c3F)ncnc2cc1OCCCN1CCCC1 [Cediranib (AZD2171)],51.1
6,N[C@@H](C(=O)N[C@@H]1C(=O)N2C(C(=O)O)=C(Cl)CS[C@H]12)c1ccccc1 [Cefaclor],0
7,CC1=C(C(=O)O)N2C(=O)[C@@H](NC(=O)[C@H](N)c3ccc(O)cc3)[C@H]2SC1 [Cefadroxil hydrate],0
8,Cn1nnnc1SCC1=C(C(=O)O)N2C(=O)[C@@H](NC(=O)[C@H](OC=O)c3ccccc3)[C@H]2SC1 [Cefamandole nafate],0
9,Cc1nnc(SCC2=C(C(=O)O)N3C(=O)[C@@H](NC(=O)Cn4cnnn4)[C@H]3SC2)s1 [Cefazolin Sodium],2.52
10,CC/C=C(\C(=O)N[C@@H]1C(=O)N2C(C(=O)OCOC(=O)C(C)(C)C)=C(COC(N)=O)CS[C@H]12)c1csc(N)n1 [Cefcapene Pivoxil Hydrochloride],0.547
11,CO/N=C(\C(=O)N[C@@H]1C(=O)N2C(C(=O)OCOC(=O)C(C)(C)C)=C(/C=C\c3scnc3C)CS[C@H]12)c1csc(N)n1 [Cefditoren Pivoxil],0
12,CO/N=C(\C(=O)N[C@@H]1C(=O)N2C(C(=O)O)=C(C[N+]3(C)CCCC3)CS[C@H]12)c1csc(N)n1 [Cefepime Dihydrochloride Monohydrate],0
13,C=CC1=C(C(=O)O)N2C(=O)[C@@H](NC(=O)/C(=N\OCC(=O)O)c3csc(N)n3)[C@H]2SC1 [Cefixime],0
14,CO/N=C(\C(=O)N[C@@H]1C(=O)N2C(C(=O)O)=C(CSc3nnnn3C)CS[C@H]12)c1csc(N)n1 [Cefmenoxime hydrochloride],0
15,CO[C@@]1(NC(=O)CSCC#N)C(=O)N2C(C(=O)O)=C(CSc3nnnn3C)CS[C@@H]21 [Cefmetazole sodium],8.58
16,O=C(O)C1=C(CSc2nnnn2CS(=O)(=O)O)CS[C@@H]2[C@H](NC(=O)[C@H](O)c3ccccc3)C(=O)N12 [Cefonicid sodium],0
17,CCN1CCN(C(=O)N[C@@H](C(=O)N[C@@H]2C(=O)N3C(C(=O)O)=C(CSc4nnnn4C)CS[C@H]23)c2ccc(O)cc2)C(=O)C1=O [Cefoperazone],0
18,NCc1ccccc1CC(=O)N[C@@H]1C(=O)N2C(C(=O)O)=C(CSc3nnnn3CC(=O)O)CS[C@H]12 [Ceforanide],0
19,CO/N=C(\C(=O)N[C@@H]1C(=O)N2C(C(=O)O)=C(Cn3ccc(=N)n3CCO)CS[C@H]12)c1csc(N)n1 [Cefoselis Sulfate],22.8
20,CO/N=C(\C(=O)N[C@@H]1C(=O)N2C(C(=O)O)=C(COC(C)=O)CS[C@H]12)c1csc(N)n1 [Cefotaxime sodium],0.981
21,CC(OC(=O)OC1CCCCC1)OC(=O)C1=C(CSc2nnnn2CCN(C)C)CS[C@@H]2[C@H](NC(=O)Cc3csc(N)n3)C(=O)N12 (stereo partly drawn) [Cefotiam Hexetil Hydrochloride],0
22,CN(C)CCn1nnnc1SCC1=C(C(=O)O)N2C(=O)[C@@H](NC(=O)Cc3csc(N)n3)[C@H]2SC1 [Cefotiam hydrochloride],23.3
